Experiments:
Type in all cases: cell-based, human
[1] = tested on: differentiating hES cells (EB day 8); test: RT-PCR gene expression analysis of hES cell constructs on PLLA/PLGA scaffolds; details: scaffold constructs, two weeks
Protocol: (§1) For seeding in matrigel, 8-9 days-old EBs were trypsinized, and 0.8×10^6 cells were mixed in 25 μL of a 50% (vol/vol) media and matrigel (growth factor-reduced, BD Biosciences, Bedford, Mass.). EB media was supplemented with the following growth factors: TGF-β1 (2 ng/mL), activin-A (20 ng/mL), and IGF-I (10 ng/mL), (R&D Systems, Minneapolis, Minn.), and RA (300 ng/ml) (Sigma). The mixture was solidified in a 6-well Petri dish at 37° C. and then detached from the dish with sterile blades. 4 mL of each respective EB media was added. For seeding on scaffolds, 0.8×10^6 cells were seeded into each scaffold using 25 μL of a mixture containing 50% (vol/vol) of Growth Factor-Reduced Matrigel and the respective EB media. After seeding the cells, scaffolds were suspended in 6-well petri dishes in their respective media. For some experiments, scaffolds were soaked in 50 μg/mL of fibronectin (Sigma) for 1 hour and washed in PBS prior to direct cell seeding (without matrigel) in 25 μL of EB media.
Total RNA was isolated by an RNEasy Mini Kit (Qiagen, Chatsworth, Calif.). […] For some gels including RNA amplified using a GADPH primer, semi-quantitative analysis was performed by measuring the mean pixel intensities of each band and normalizing the measured intensity to the mean pixel intensity of the GADPH band.

[2] = tested on: differentiating hES cells (EB day 8); test: Histochemical and immunohistochemical staining of hES cell constructs on PLLA/PLGA scaffolds; details: scaffold constructs, two weeks; for alpha feto protein (AFP) and albumin staining: in comparison to the control
Protocol: as §1
(§2) Tissue constructs were fixed for 6 hours in 10% neutral buffered formalin, routinely processed, and embedded in paraffin. 5-μm thick transverse sections were placed on silanized slides for immunohistochemistry or staining with hematoxylin and eosin (H & E), trichrome, or Safranin O. Immunohistochemical staining was carried out using the Biocare Medical Universal HRP-DAB kit (Biocare Medical, Walnut Creek, Calif.) according to the manufacturer's instructions, with prior heat-treatment at 90° C. for 20 minutes in ReVeal buffer (Biocare Medical) for epitope recovery. The primary antibodies were mouse anti-human: desmin (1:150), alpha feto protein (1:2500), cytokeratin 7 (1:25), CD31 (1:20), albumin (1:100), vimentin (1:50), S100 (1:100) (all from Dako), anti-human βIII-tubulin (Sigma, 1:500), nestin (Transduction Laboratories, San Diego, Calif., 1:1000), CD34 (Labvision, Fremont, Calif., 1:20), SSEA4 (Hybridoma Bank, University of Iowa, Ames, 1:4), and Tra 1-60 (a gift from Peter Andrews, University of Sheffield, Sheffield, U.K., 1:10). Human and mouse tissues (Daks) were used as controls to ensure antibody specificity (FIG. 1). For proliferation studies, culture medium was incubated with […] of 5′-bromo-2′-deoxyuridine (BrdUrd) (Sigma) for 3 hours before fixation. Tissue sections were stained using mouse anti-BrdUrd antibodies (1:1000).

[3] = tested on: differentiating hES cells (EBs day 8); test: Differentiation of hES cells in matrigel alone; details: for shape of cell-matrigel structure: two weeks in suspension
Protocol: as §1, §2

[4] = tested on: differentiating hES cells (EB day 8); test: Lumen diameters of tubulocystic structures lined by cytokeratin-positive epithelium in hES cell-scaffold constructs; details: scaffold constructs grown two weeks, IGF-I 10 ng/mL, mean ±SD; for percentage of lumens >40 μm of total number of lumens (tubulocystic structures): RA 300 ng/ml, control 65%±4
Protocol: as §1
(§3) Tissue constructs were fixed for 6 hours in 10% neutral buffered formalin, routinely processed, and embedded in paraffin. 5-μm thick transverse sections were placed on silanized slides for immunohistochemistry or staining with hematoxylin and eosin (H & E), trichrome, or Safranin O. Immunohistochemical staining was carried out using the Biocare Medical Universal HRP-DAB kit (Biocare Medical, Walnut Creek, Calif.) according to the manufacturer's instructions, with prior heat-treatment at 90° C. for 20 minutes in ReVeal buffer (Biocare Medical) for epitope recovery. […]
Constructs grown for two weeks in control medium or in the presence of IGF or RA were processed and stained with anti-cytokeratin antibody as described above. Tubulocystic structures were counted and lumen diameters measured and grouped (large>200 μm, medium (Med)>40 μm, small<[…], closed and multilayered lumens). The results, the mean values (±SD) of samples obtained in two different experiments performed in duplicate, were recorded as percentages of lumens in each group from total number of lumens in each sample.

hEBs (day 8) = test: Staining of hEBs incubated with growth factors; details: EBs conditioned with growth factor
Protocol: FIG. 4 includes light micrographs of 5-μm-thick sections taken from hEBs (day 8), incubated for additional 2 weeks with control medium (CON) or medium supplemented with retinoic acid (RA), or insulin-like growth factor (IGF), and stained with antibodies against human cytokeratin, α-feto-protein, and nestin (scale bars=200 μm.)
hES cells (H9 clone) were grown on mouse embryonic fibroblasts (Cell Essential, Boston, Mass.) in KnockOut Medium (Gibco-BRL, Gaithersburg, Md.), a modified version of Dulbeco's modified Eagle's medium optimized for ES cells, as described^5. To induce formation of EBs, hES cell colonies were dissociated with 1 mg/ml collagenase type IV and suspended in differentiation media without LIF and bFGF in Petri dishes^5.
as §3

## activin-A
[1]; versus other growth factors
  expression of pancreatic gene PDX-1: higher levels
[2]
  Safranin-O staining for glycosaminoglycans (cartilage extracellular matrix): did not induce formation of Safranin O-positive matrix
  alpha feto protein (AFP) and albumin staining: high levels of alpha feto protein (AFP) and albumin throughout the sample
[3]; two weeks
  AFP expression/staining: No AFP expression was observed
  cellular viability: least cellular viability
  epithelial-lined tubular or cystic structures (histology): did not contain any such structures
[3]
  shape of cell-matrigel structure: small, condensed spheres

## IGF: insulin growth factor IGF-I, 10 ng/mL (R&D Systems)
[4]
  percentage of lumens >40 μm of total number of lumens (tubulocystic structures): 84%±6
  percentage of lumens >200 μm of total number of lumens (tubulocystic structures): 10%±3
[2]
  Safranin-O staining for glycosaminoglycans (cartilage extracellular matrix): did not induce formation of Safranin O-positive matrix
  alpha feto protein (AFP) and albumin staining: high levels of AFP and albumin in more defined areas
[3]; two weeks
  AFP expression/staining: some AFP staining could be observed
  epithelial-lined tubular or cystic structures (histology): occasional epithelial-lined tubular or cystic structures
[3]
  shape of cell-matrigel structure: larger and less condensed

## CC1=C(/C=C/C(C)=C/C=C/C(C)=C/C(=O)O)C(C)(C)CCC1 [RA, retinoic acid, reference compound]
[4]
  percentage of lumens >40 μm of total number of lumens (tubulocystic structures): 25%±12
[2]; versus control medium, P<0.01
  increase in total percentage of cytokeratin-positive areas within the tissue: ~4 fold

## TGF-β: transforming growth factor beta, TGF-β1, 2 ng/mL (R&D Systems)
[1]; compared to the other samples
  cartilage matrix protein (CMP) expression: higher levels
hEBs (day 8)
  safranin-O staining: no safranin-O staining was observed
[2]
  Safranin-O staining for glycosaminoglycans (cartilage extracellular matrix): high levels of Safranin-O staining
  collagen formation (trichrome staining): induced mature collagen formation
[3]; two weeks
  Safranin-O staining of cartilage-derived GAG: No Safanin-O staining
  epithelial-lined tubular or cystic structures (histology): did not contain any such structures

Reference: patent US20050031598A1, “Engineering three-dimensional tissue structures using differentiating embryonic stem cells” (priority 2002, published 2005)
